Source: patent publication US20120214862A1, “MODULATION OF FACTOR 7 EXPRESSION” (ISIS Pharmaceuticals, Inc., priority 2009, published 2012)
In the oligonucleotide strings, read from the 5' end, every base follows the letter of its sugar. An asterisk marks phosphorothioate; unmarked linkages are phosphodiester. Other units and linkages are bracketed, terminal groups are in braces. A string of capitals states the bases alone. e = 2'-O-(2-methoxyethyl) (MOE); [5mC] = 5-methylcytosine; d = 2'-deoxy (DNA)

Tested on: human Factor 7 mRNA
Assay: Antisense inhibition of human Factor 7 mRNA in HepB3 cells, lipofectin, 50 nM, real-time RT-PCR
Type: cell-based
Conditions: Example 1; HepB3 cells, lipofectin, 50 nM, ~24 h, relative to untreated control cells
Procedure: Antisense oligonucleotides targeted to a Factor 7 nucleic acid were tested for their effects on Factor 7 mRNA in vitro. Cultured HepB3 cells at a density of 4,000 cells per well were transfected using lipofectin reagent with 50 nM antisense oligonucleotide. After a treatment period of approximately 24 hours, RNA was isolated from the cells and Factor 7 mRNA levels were measured by real-time RT-PCR, as described herein. Factor 7 mRNA levels were adjusted according to total RNA content as measured by RIBOGREEN®. Results are presented as percent inhibition of Factor 7, relative to untreated control cells.
(§1) Antisense oligonucleotides targeted to a Factor 7 nucleic acid were designed and tested for their effects on Factor 7 mRNA in vitro. Certain antisense oligonucleotides from Table 3 were also retested for their effects on Factor 7 mRNA in vitro. Cultured HepB3 cells at a density of 4,000 cells per well were transfected using lipofectin reagent with 50 nM antisense oligonucleotide. After a treatment period of approximately 24 hours, RNA was isolated from the cells and Factor 7 mRNA levels were measured by real-time RT-PCR, as described herein. Human Factor 7 primer probe set RTS 2927 was used to measure mRNA levels. Factor 7 mRNA levels were adjusted according to total RNA content as measured by RIBOGREEN®. Results are presented as percent inhibition of Factor 7, relative to untreated control.
as §1, with “tested” for “tested for their effects on Factor 7 mRNA in vitro. Certain antisense oligonucleotides from Table 3 were also retested”
These gapmers were designed by creating gapmers shifted slightly upstream and downstream (i.e. “microwalk”) of the original gapmers from Table 7. Gapmers were also created with various motifs, e.g. 5-10-5 MOE, 3-14-3 MOE, and 2-13-5 MOE. These gapmers were tested in vitro. Cultured HepB3 cells at a density of 4,000 cells per well were transfected using lipofectin reagent with 50 nM antisense oligonucleotide. After a treatment period of approximately 24 hours, RNA was isolated from the cells and Factor 7 mRNA levels were measured by real-time RT-PCR. Factor 7 mRNA levels were adjusted according to total RNA content, as measured by RIBOGREEN®. Results are presented as percent inhibition of Factor 7, relative to untreated control cells.

Substance	% Inhibition (human Factor 7 mRNA)
403090 (antisense eA*eG*eT*e[5mC]*e[5mC]*dT*dG*dG*dG*dT*d[5mC]*dA*dT*d[5mC]*dA*eG*e[5mC]*e[5mC]*eG*eG) [compound 403090]	69%
403093 (antisense eG*eA*eG*eA*e[5mC]*d[5mC]*d[5mC]*dT*dG*dG*dT*dG*dT*dA*d[5mC]*eA*e[5mC]*e[5mC]*e[5mC]*e[5mC]) [compound 403093]	75%
407595 (antisense eT*e[5mC]*e[5mC]*eT*eG*dA*dG*dG*d[5mC]*d[5mC]*dT*dT*dA*dG*d[5mC]*eG*eA*e[5mC]*e[5mC]*e[5mC]) [compound 407595]	71%
407596 (antisense eG*eA*eG*eG*e[5mC]*d[5mC]*d[5mC]*d[5mC]*dG*dG*d[5mC]*dT*dT*d[5mC]*d[5mC]*eA*e[5mC]*eG*eG*e[5mC]) [compound 407596]	61%
407597 (antisense eT*eG*eT*eT*eG*dA*d[5mC]*dA*dT*dT*d[5mC]*d[5mC]*d[5mC]*d[5mC]*dA*eT*eG*eG*eG*eA) [compound 407597]	39%
407598 (antisense e[5mC]*e[5mC]*eA*eT*eG*dA*dT*dG*dA*dA*dA*dT*d[5mC]*dT*d[5mC]*eT*eG*e[5mC]*eA*eG) [compound 407598]	72%
407599 (antisense e[5mC]*e[5mC]*eT*eG*eG*dG*dA*dG*dA*d[5mC]*d[5mC]*dA*dT*dG*dA*eT*eG*eA*eA*eA) [compound 407599]	73%
407600 (antisense eT*eG*eA*eA*eG*d[5mC]*d[5mC]*d[5mC]*dA*dA*dG*d[5mC]*dA*dG*dA*eA*eG*eG*e[5mC]*eA) [compound 407600]	61%
407601 (antisense e[5mC]*eA*eG*e[5mC]*e[5mC]*d[5mC]*dT*dG*dA*dA*dG*d[5mC]*d[5mC]*d[5mC]*dA*eA*eG*e[5mC]*eA*eG) [compound 407601]	52%
407602 (antisense e[5mC]*eT*eG*e[5mC]*eA*dG*d[5mC]*d[5mC]*dA*dG*dG*d[5mC]*dA*dG*d[5mC]*e[5mC]*e[5mC]*eT*eG*eA) [compound 407602]	81%
407603 (antisense eT*eA*eA*eG*eA*dA*dA*dT*d[5mC]*d[5mC]*dA*dG*dA*dA*d[5mC]*eA*eG*e[5mC]*eT*eT) [compound 407603]	54%
407604 (antisense e[5mC]*eA*e[5mC]*eA*e[5mC]*dT*dG*dG*dT*d[5mC]*d[5mC]*d[5mC]*d[5mC]*dA*dT*e[5mC]*eA*e[5mC]*eT*eG) [compound 407604]	34%
407605 (antisense eT*eT*eG*eA*eG*dG*d[5mC]*dA*d[5mC]*dA*d[5mC]*dT*dG*dG*dT*e[5mC]*e[5mC]*e[5mC]*e[5mC]*eA) [compound 407605]	58%
407607 (antisense eT*eG*eG*eA*eG*d[5mC]*dT*dG*dG*dT*d[5mC]*d[5mC]*dT*dT*dG*e[5mC]*eA*eG*eG*eA) [compound 407607]	76%
407608 (antisense eT*eA*eT*eA*eG*dG*dA*d[5mC]*dT*dG*dG*dA*dG*d[5mC]*dT*eG*eG*eT*e[5mC]*e[5mC]) [compound 407608]	13%
407609 (antisense eA*eG*eA*eA*eG*d[5mC]*dA*dG*dA*dT*dA*dT*dA*dG*dG*eA*e[5mC]*eT*eG*eG) [compound 407609]	35%
407610 (antisense eA*eG*eG*eG*eA*dG*dG*d[5mC]*dA*dG*dA*dA*dG*d[5mC]*dA*eG*eA*eT*eA*eT) [compound 407610]	31%
407611 (antisense eT*e[5mC]*eT*e[5mC]*eA*d[5mC]*dA*dG*dT*dT*d[5mC]*d[5mC]*dG*dG*d[5mC]*e[5mC]*e[5mC]*eT*e[5mC]*eG) [compound 407611]	82%
407612 (antisense eA*eG*eA*eT*e[5mC]*dA*dG*d[5mC]*dT*dG*dG*dT*d[5mC]*dA*dT*e[5mC]*e[5mC]*eT*eT*eG) [compound 407612]	82%

Substance	% Inhibition (human Factor 7 mRNA)
407613 (antisense eT*eG*e[5mC]*eT*e[5mC]*dA*d[5mC]*dA*dG*d[5mC]*d[5mC]*dG*d[5mC]*d[5mC]*dG*eT*eT*e[5mC]*eT*e[5mC]) [compound 407613]	66%
407614 (antisense eT*eG*e[5mC]*eA*eG*dT*dA*d[5mC]*dT*dG*d[5mC]*dT*d[5mC]*dA*d[5mC]*eA*eG*e[5mC]*e[5mC]*eG) [compound 407614]	78%
407615 (antisense eG*eA*e[5mC]*eA*e[5mC]*d[5mC]*d[5mC]*d[5mC]*dG*dT*d[5mC]*dT*dG*d[5mC]*d[5mC]*eA*eG*e[5mC]*eA*eG) [compound 407615]	65%
407616 (antisense eT*eG*e[5mC]*eA*eG*dG*dA*d[5mC]*dA*d[5mC]*d[5mC]*d[5mC]*d[5mC]*dG*dT*e[5mC]*eT*eG*e[5mC]*e[5mC]) [compound 407616]	64%
407617 (antisense eT*e[5mC]*e[5mC]*eA*e[5mC]*dA*dT*dG*dG*dA*dT*dA*dT*dT*d[5mC]*eA*eA*e[5mC]*eT*eG) [compound 407617]	67%
407618 (antisense eG*eT*eA*eT*eT*dT*dT*dT*d[5mC]*d[5mC]*dA*d[5mC]*dA*dT*dG*eG*eA*eT*eA*eT) [compound 407618]	42%
407619 (antisense eA*eG*eA*eA*eT*dA*dG*dG*dT*dA*dT*dT*dT*dT*dT*e[5mC]*e[5mC]*eA*e[5mC]*eA) [compound 407619]	64%
407620 (antisense eA*eG*eG*eA*e[5mC]*d[5mC]*dT*dG*d[5mC]*d[5mC]*dA*dT*dG*dG*dA*e[5mC]*eA*e[5mC]*eT*e[5mC]) [compound 407620]	79%
407621 (antisense eA*e[5mC]*eA*eA*e[5mC]*dA*dG*dG*dA*d[5mC]*d[5mC]*dT*dG*d[5mC]*d[5mC]*eA*eT*eG*eG*eA) [compound 407621]	62%
407622 (antisense eT*e[5mC]*eA*e[5mC]*e[5mC]*dA*dA*d[5mC]*dA*dA*d[5mC]*dA*dG*dG*dA*e[5mC]*e[5mC]*eT*eG*e[5mC]) [compound 407622]	55%
407623 (antisense eT*e[5mC]*e[5mC]*eA*eT*dT*d[5mC]*dA*d[5mC]*d[5mC]*dA*dA*d[5mC]*dA*dA*e[5mC]*eA*eG*eG*eA) [compound 407623]	69%
407624 (antisense eG*eA*eG*eA*e[5mC]*d[5mC]*dA*d[5mC]*d[5mC]*d[5mC]*dA*dG*dA*dT*dG*eG*eT*eG*eT*eT) [compound 407624]	73%
407625 (antisense eT*eT*eG*eT*e[5mC]*dG*dA*dA*dA*d[5mC]*dA*dG*dT*dG*dG*eG*e[5mC]*e[5mC]*eG*e[5mC]) [compound 407625]	100%
407626 (antisense eT*e[5mC]*eT*eT*eG*dA*dT*dT*dT*dT*dG*dT*d[5mC]*dG*dA*eA*eA*e[5mC]*eA*eG) [compound 407626]	82%
407627 (antisense eG*e[5mC]*e[5mC]*e[5mC]*eA*dG*d[5mC]*dA*d[5mC]*d[5mC]*dG*d[5mC]*dG*dA*dT*e[5mC]*eA*eG*eG*eT) [compound 407627]	79%
407628 (antisense eT*eG*eA*eT*eG*dA*d[5mC]*d[5mC]*dT*dG*d[5mC]*dG*d[5mC]*d[5mC]*dA*e[5mC]*e[5mC]*e[5mC]*eG*e[5mC]) [compound 407628]	38%
407629 (antisense eT*e[5mC]*eA*eG*eT*dG*dA*dG*dG*dA*d[5mC]*d[5mC]*dA*d[5mC]*dG*eG*eG*e[5mC]*eT*eG) [compound 407629]	34%
407630 (antisense e[5mC]*eA*e[5mC]*eA*eT*dG*dG*dT*d[5mC]*dA*dG*dT*dG*dA*dG*eG*eA*e[5mC]*e[5mC]*eA) [compound 407630]	29%
407631 (antisense eG*eG*eG*e[5mC]*eA*d[5mC]*d[5mC]*dA*d[5mC]*dA*dT*dG*dG*dT*d[5mC]*eA*eG*eT*eG*eA) [compound 407631]	66%
